Test results as given in patent US20020094524A1, “Compositions and methods for inhibiting HIV infection” (priority 2000, published 2002).

Experiments:
IL-6 = IL-6 production in LPS-treated MDM (ELISA); format: cell-based, human; details: 10^−9 to 10^−7M; LPS 1 ng/ml; 24 h (FIG. 11)
Method: In order to determine the role of CP-96,345 in the regulation of cytokine secretion, 7-day-cultured MDM were incubated with or without CP-96,345 (10^−9 to 10^−7M) and/or LPS (1 ng/ml) for 24 h. The culture supernatants were collected to determine TNF-α and IL-6 levels by ELISA. The ELISA kits were purchased from Endogen, Inc. (Woburn, Mass.).

HIV gag mRNA = HIV gag mRNA by RT-PCR / real time RT-PCR in infected MDM; format: cell-based
Method: HIV Infection: After 2 h incubation with or without the reagents described above, the cells were infected with equal amounts of cell-free HIV based on p24 antigen content (20 ng/10^6 cells) overnight, and then washed to remove unbound virus. Fresh media containing SP and/or CP-96,345 or anti-SP antibody were added to the MDM as described above. The culture media and the reagents were replaced twice weekly. The culture supernatants were harvested for HIV reverse transcriptase (RT) activity determinations. After HIV infection, the MDM were incubated for 8 to 12 days. At the termination of the experiments, cellular RNA was extracted for assessment of HIV gag gene expression using RT-PCR or real time RT-PCR assays.
Total RNA was isolated from human peripheral blood MDM (10^6 cells) using Tri-Reagent (Molecular Research Center, Cincinnati, Ohio) as we previously reported (16).
Reverse transcription: Total RNA (1 μg) was reverse transcribed using Reverse Transcription System (Promega, Madison, Wis.) with the specific primers (antisense) for HIV gag (5′-[…]-[…]-3′; SEQ ID NO: 1) (27) or CCR5 (5′-[…]-3′; SEQ ID NO: 2) (32) for 1 h at 42° C. RT reactions was terminated by incubating the reaction mixture at 99° C. for 5 min and then kept at 4° C. The resulting cDNA was used as a template for PCR amplification or real time PCR quantification. […]

COc1ccccc1CN[C@H]1C2CCN(CC2)[C@H]1C(c1ccccc1)c1ccccc1 [CP-96,345, 2S, 3S)-cis-2-(diphenylmethyl)-N-[(2-methoxyphenyl)-methyl]-1-azabicyclo[[2.2.2]octan-3-amine]
IL-6 production in MDM (IL-6): not affected | HIV gag mRNA expression (RT-PCR) (HIV gag mRNA; 10^−11 to 10^−7 M, 12 days after infection, concentration-dependent (FIG. 3 top panel)): potently inhibited | HIV gag gene mRNA expression (real time RT-PCR copy numbers) (HIV gag mRNA; all three concentrations tested, 12 days after infection (FIG. 3)): significantly suppress
